pKi: −log10 of the molar value.
biological target: Rab7 GTPase wildtype (dog), GST fusion; test: inhibition of fluorescent GTP loading on Rab7 – biochemical, dog Rab7, bead multiplex flow cytometry, Bodipy-FL-GTP, pyrazoline series, SAR follow-up (AID 2041); details: Bead-based flow cytometry, Bodipy-FL-GTP binding; Ki calculated from EC50

| Structure (SMILES) | pKi |
| --- | --- |
| Clc1ccc(N2N=C(c3ccccc3)CC2c2ccccc2)cc1 (stereo not drawn) | 6.37 |
| COc1ccc(C2CC(c3ccc(F)cc3)=NN2c2cc(Cl)ccc2Cl)cc1 (stereo not drawn) | 6.14 |
| COc1ccc(C2=NN(c3ccccc3)C(c3ccc(Cl)cc3)C2)cc1 (stereo not drawn) | 7.40 |
| O=S(=O)(c1ccc(N2N=C(c3ccccc3)CC2c2ccccc2)cc1)C(F)F (stereo not drawn) | 7.52 |
| COc1ccc(C2CC(c3ccc(F)cc3)=NN2c2cccc(F)c2)cc1OC (stereo not drawn) | 5.83 |

The remaining compounds from weak to strong by pKi, led by results:

| pKi | Structure (SMILES) |
| --- | --- |
| 6.18 | COc1ccccc1N1N=C(c2ccccc2)CC1c1ccccc1 (stereo not drawn) |
| 8.00 | COc1ccc(C2CC(c3cccc(Cl)c3)=NN2c2ccc(S(N)(=O)=O)cc2)cc1 (stereo not drawn) |
| 8.00 | COc1ccc(C2=NN(c3cccc(F)c3)C(c3ccc(OC)cc3)C2)cc1 (stereo not drawn) |

Reference: PubChem BioAssay AID2041 (NMMLSC, 2009)
